The record followed here is patent EP1586565A1, “Substituted polycyclic aryl and heteroaryl pyrazinones useful for selective inhibition of the coagulation cascade” (Pharmacia Corporation, priority 1999, dated 2000).

Each structure is given as a SMILES string.

The target of one assay is T1, TF-VIIa (Homo sapiens, UniProt P08709).
T1 construct: An extrinsic pathway is initiated by the conversion of coagulation factor VII to VIIa by Xa; purchased American Diagnostica, Greenwich CT; Soluble TF was made in house in E. coli
T1 sequence (P08709 213-466 limits assumed): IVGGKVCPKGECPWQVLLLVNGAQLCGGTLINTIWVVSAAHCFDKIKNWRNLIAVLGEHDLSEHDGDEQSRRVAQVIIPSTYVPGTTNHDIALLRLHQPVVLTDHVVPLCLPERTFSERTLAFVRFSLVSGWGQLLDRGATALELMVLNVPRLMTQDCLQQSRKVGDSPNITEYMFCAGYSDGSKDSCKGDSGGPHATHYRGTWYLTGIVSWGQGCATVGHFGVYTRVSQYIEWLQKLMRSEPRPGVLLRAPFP
T1 sequence (P08709 61-212 limits assumed): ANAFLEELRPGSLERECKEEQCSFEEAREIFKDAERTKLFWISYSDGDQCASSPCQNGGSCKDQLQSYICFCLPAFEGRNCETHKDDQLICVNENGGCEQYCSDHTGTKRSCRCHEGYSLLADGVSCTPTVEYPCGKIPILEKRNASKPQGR
T1 sequence (P13726 33-251 partner limits assumed): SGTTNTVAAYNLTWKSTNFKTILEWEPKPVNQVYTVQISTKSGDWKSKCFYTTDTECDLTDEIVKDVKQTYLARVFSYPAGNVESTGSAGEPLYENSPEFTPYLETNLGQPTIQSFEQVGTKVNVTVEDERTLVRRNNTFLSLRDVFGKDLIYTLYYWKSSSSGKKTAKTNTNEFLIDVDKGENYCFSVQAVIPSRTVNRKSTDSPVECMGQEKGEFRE
Nature of the assay: TF-VIIa Assay. Format: biochemical. The settings on record: for IC50 or % Inhibition TF-VIIa (30 µM): % inhibition at 30 µM (cells with % or %@30, bare 0).

The next assay has as its target T2, Human factor Xa (Homo sapiens, UniProt P00742).
T2 construct: leads from XII to XIIa to XIa to IXa and to the conversion of X to Xa; purchased Enzyme Research Laboratories, South Bend IN
Nature of the assay: Xa Assay. Format: biochemical. The settings on record: for IC50 or % Inhibition Factor Xa (30 µM): % inhibition at 30 µM (cells with % or %@30, bare 0).

T2 sequence (P00742 235-488 limits assumed): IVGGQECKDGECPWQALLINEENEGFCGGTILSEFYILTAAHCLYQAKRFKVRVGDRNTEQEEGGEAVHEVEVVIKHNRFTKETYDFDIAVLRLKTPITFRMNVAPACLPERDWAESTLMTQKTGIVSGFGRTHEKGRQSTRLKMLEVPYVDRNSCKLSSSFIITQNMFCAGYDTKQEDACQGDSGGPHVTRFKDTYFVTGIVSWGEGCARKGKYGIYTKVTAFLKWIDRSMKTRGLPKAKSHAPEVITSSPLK
T2 sequence (P00742 41-179 limits assumed): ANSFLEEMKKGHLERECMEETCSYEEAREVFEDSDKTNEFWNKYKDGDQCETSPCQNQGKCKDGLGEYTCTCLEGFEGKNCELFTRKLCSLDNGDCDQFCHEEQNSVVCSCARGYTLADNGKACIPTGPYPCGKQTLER

Regarding `CC(=O)Nc1cccc(-c2c(Cl)nc(NC(C)C)c(=O)n2CC(=O)NCCc2ccc(C(=N)N)cc2)c1` [Example 68], the “IC50 or % Inhibition TF-VIIa (30 µM)” value at TF-VIIa is on record as 32%. At Human factor Xa, the “IC50 or % Inhibition Factor Xa (30 µM)” value worked out at 6%.
With `COc1ccc(-c2c(Cl)nc(NCc3ccccc3)c(=O)n2CC(=O)NCc2ccc(C(=N)N)cc2)cc1` [1471-33], the “IC50 or % Inhibition TF-VIIa (30 µM)” value at TF-VIIa stood at 31%. For the same compound, the “IC50 or % Inhibition Factor Xa (30 µM)” value against Human factor Xa is given as 22%.
On to `N=C(N)c1ccc(CNC(=O)Cn2c(-c3ccccc3)c(Cl)nc(NCc3cccc4ccccc34)c2=O)cc1` [1507-28], for which, at TF-VIIa, the “IC50 or % Inhibition TF-VIIa (30 µM)” value stood at 38%.
As to `N=C(N)c1ccc(CNC(=O)Cn2c(-c3ccccc3)c(Cl)nc(NCC(F)(F)F)c2=O)cc1` [1507-41], the “IC50 or % Inhibition TF-VIIa (30 µM)” value against TF-VIIa is 48%. For the same compound, the “IC50 or % Inhibition Factor Xa (30 µM)” value at Human factor Xa was 17%.
In the same order, the values of `Cc1cc(Cl)cc(Cl)c1CNc1nc(Cl)c(-c2ccccc2)n(CC(=O)NCc2ccc(C(=N)N)cc2)c1=O` [1512-45] are 27% and 11%.
As to `N=C(N)c1ccc(CNC(=O)Cn2c(-c3ccc(-c4ccccc4)cc3)c(Cl)nc(NCCc3cccnc3)c2=O)cc1` [1471-72], the “IC50 or % Inhibition TF-VIIa (30 µM)” value at TF-VIIa stood at 15%. Further, the “IC50 or % Inhibition Factor Xa (30 µM)” value on Human factor Xa stood at 22%.
In the same order, the values of `N=C(N)c1ccc(CNC(=O)C(Cc2ccccc2)n2c(-c3ccccc3)c(Cl)nc(NCCc3ccccc3)c2=O)cc1` (centres unmarked) [1517-14] are 30% and 0%.
`N=C(N)c1ccc(CNC(=O)Cn2c(-c3ccc(-c4ccccc4)cc3)c(Cl)nc(NCCc3cccnc3)c2=O)cc1` [Example 21]: on TF-VIIa, the “IC50 or % Inhibition TF-VIIa (30 µM)” value worked out at 8%@30.
Consider `N=C(N)c1ccc(CNC(=O)Cn2c(-c3ccc4c(c3)OCO4)c(Cl)nc(NCCN3CCOCC3)c2=O)cc1` [1471-44], for which the “IC50 or % Inhibition TF-VIIa (30 µM)” value at TF-VIIa is recorded as 34%. Further, the “IC50 or % Inhibition Factor Xa (30 µM)” value against Human factor Xa is 13%.
`N=C(N)c1ccc(CNC(=O)C(Cc2ccccc2)n2c(-c3ccccc3)c(Cl)nc(NCCc3cccc(Cl)c3)c2=O)cc1` (centres unmarked) [1517-20]: at TF-VIIa, the “IC50 or % Inhibition TF-VIIa (30 µM)” value is given as 22%. The “IC50 or % Inhibition Factor Xa (30 µM)” value against Human factor Xa was determined as 0%.
The matching figures for `Cc1cccc(Cl)c1CNc1nc(Cl)c(-c2ccccc2)n(CC(=O)NCc2ccc(C(=N)N)cc2)c1=O` [1512-31]: 43% and 14%.
In the same order, the values of `N=C(N)c1ccc(CNC(=O)C(Cc2ccccc2)n2c(-c3ccccc3)c(Cl)nc(NC3CCC3)c2=O)cc1` (centres unmarked) [1517-08] are 43% and 0%.
As for `N=C(N)c1ccc(CNC(=O)Cn2c(-c3ccccc3)c(Cl)nc(NCc3cccc(OC(F)(F)F)c3)c2=O)cc1` [1512-40], the “IC50 or % Inhibition TF-VIIa (30 µM)” value against TF-VIIa amounted to 40%. In addition, the “IC50 or % Inhibition Factor Xa (30 µM)” value at Human factor Xa was determined as 3%.
In the same order, the values of `COc1ccc(-c2c(Cl)nc(NCCc3ccncc3)c(=O)n2CC(=O)NCc2ccc(C(=N)N)cc2)cc1` [1471-37] are 39% and 7%.
As to `N=C(N)c1ccc(CNC(=O)Cn2c(-c3ccc(Cl)cc3)c(Cl)nc(NCc3ccncc3)c2=O)cc1` [1471-19], on TF-VIIa, the “IC50 or % Inhibition TF-VIIa (30 µM)” value stood at 33%. Moreover, the “IC50 or % Inhibition Factor Xa (30 µM)” value against Human factor Xa was found to be 26%.
For `N=C(N)c1ccc(CNC(=O)Cn2c(-c3ccccc3)c(Cl)nc(NCc3c(F)cccc3C(F)(F)F)c2=O)cc1` [1512-44], at TF-VIIa, the “IC50 or % Inhibition TF-VIIa (30 µM)” value turned out to be 43%. The “IC50 or % Inhibition Factor Xa (30 µM)” value at Human factor Xa amounted to 6%.
The matching figures for `CCCCNc1nc(Cl)c(-c2ccccc2)n(CC(=O)NCc2ccc(C(=N)N)cc2)c1=O` [1517-35]: 33% and 0%.
On to `N=C(N)c1ccc(CNC(=O)Cn2c(-c3ccc(-c4ccccc4)cc3)c(Cl)nc(NCCc3ccc(Cl)cc3)c2=O)cc1` [Example 22], for which, at TF-VIIa, the “IC50 or % Inhibition TF-VIIa (30 µM)” value was 0%@30.
Take `N=C(N)c1ccc(CNC(=O)Cn2c(-c3ccccc3)c(Cl)nc(N3CCC3)c2=O)cc1` [1522-28]: the IC50 (usually the concentration that inhibits the measured activity by half) on TF-VIIa (cells printed as bare numbers (IC50), read-out: IC50 or % Inhibition TF-VIIa (30 µM)) was > 30 µM.
Take `N=C(N)c1ccc(CNC(=O)Cn2c(-c3ccccc3)c(Cl)nc(NC(Cc3ccccc3)c3ccccc3)c2=O)cc1` (centres unmarked) [1507-07]: the “IC50 or % Inhibition TF-VIIa (30 µM)” value at TF-VIIa worked out at 25%.
As to `CCOc1ccccc1CNc1nc(Cl)c(-c2ccccc2)n(CC(=O)NCc2ccc(C(=N)N)cc2)c1=O` [1512-11], the “IC50 or % Inhibition Factor Xa (30 µM)” value against Human factor Xa amounted to 5%.
Take `C[C@H](C(=O)NCc1ccc(C(=N)N)cc1)n1c(-c2ccccc2)c(Cl)nc(NC2CCC2)c1=O` [1517-11]: the “IC50 or % Inhibition Factor Xa (30 µM)” value on Human factor Xa amounted to 0%.
Take `COc1ccc(-c2c(Cl)nc(NCCc3ccccc3)c(=O)n2CC(=O)NCCc2ccncc2)cc1` [Example E-0100]: at Human factor Xa, the “% Inhibition Factor Xa (100 µM)” value was 6%.
For `CN(C)CCNc1nc(Cl)c(-c2ccccc2)n(CC(=O)NCc2ccc(C(=N)N)cc2)c1=O` [1512-15], the “IC50 or % Inhibition Factor Xa (30 µM)” value against Human factor Xa was determined as 6%.
On the same count and under the same terms, as for `N=C(N)c1ccc(CNC(=O)Cn2c(-c3ccc(Cl)cc3)c(Cl)nc(NCCc3ccccc3)c2=O)cc1` [1471-23], the figure is 36%; as for `CN(C)CCCNc1nc(Cl)c(-c2ccccc2)n(CC(=O)NCc2ccc(C(=N)N)cc2)c1=O` [1507-47], 19%; as for `CSc1ccc(N)cc1-c1c(Cl)nc(NC(C)C)c(=O)n1CC(=O)NCc1ccc(C(=N)N)cc1` [compound 76], 0%.
For `O=C(Cn1c(-c2cccc(Cl)c2)c(Cl)nc(NCCc2ccc(Cl)cc2)c1=O)NCCc1cccnc1` [Example E-0095], the “% Inhibition Factor Xa (100 µM)” value on Human factor Xa was determined as 4%.
In the case of `N=C(N)c1ccc(CNC(=O)Cn2c(-c3ccsc3)c(Cl)nc(NCCc3ccccc3)c2=O)cc1` [1517-13], the “IC50 or % Inhibition Factor Xa (30 µM)” value against Human factor Xa is listed as 0%.
Same read-out and setting: under `N=C(N)c1ccc(CNC(=O)Cn2c(-c3cccc(Cl)c3)c(Cl)nc(NCc3ccccc3)c2=O)cc1` [1471-25] stands 31%.
For `N=C(N)c1ccc(CNC(=O)Cn2c(-c3ccc(C(F)(F)F)cc3)c(Cl)nc(NC3CCC3)c2=O)cc1` [1515-20], the “IC50 or % Inhibition TF-VIIa (30 µM)” value on TF-VIIa stood at 32%.
The same measure, in the same setting: under `N=C(N)c1ccc(CNC(=O)Cn2c(-c3ccccc3)c(Cl)nc(NCc3ccc(Cl)cc3Cl)c2=O)cc1` [1507-22] stands 45%.
Consider `N=C(N)c1ccc(CNC(=O)Cn2c(-c3ccccc3)c(Cl)nc(NCCCN3CCCC3=O)c2=O)cc1` [1507-19], for which the “IC50 or % Inhibition Factor Xa (30 µM)” value against Human factor Xa worked out at 4%.
Still for that read-out and setting: as for `N=C(N)c1ccc(CNC(=O)Cn2c(-c3c(Cl)cccc3Cl)c(Cl)nc(NCCc3ccccc3)c2=O)cc1` [1517-18], the figure is 0%.
The same measure, in the same setting: under `CCCCCNc1nc(Cl)c(-c2ccccc2)n(CC(=O)NCc2ccc(C(=N)N)cc2)c1=O` [1517-48] stands 0%; under `C[C@H](C(=O)NCc1ccc(C(=N)N)cc1)n1c(-c2ccccc2)c(Cl)nc(NCc2ccccc2)c1=O` [1517-05], 0%; under `N=C(N)c1ccc(CNC(=O)Cn2c(-c3ccccc3)c(Cl)nc(NCc3cc(F)cc(F)c3)c2=O)cc1` [1512-39], 4%.
Still for that read-out and setting: as for `N=C(N)c1ccc(CNC(=O)Cn2c(-c3ccccc3)c(Cl)nc(NC3CCCCC3)c2=O)cc1` [1517-25], the figure is 0%.
